In US4476328A, “Process for producing 3,3,3-trifluoropropyl substituted phenol” (Kureha Kagaku Kogyo Kabushiki Kaisha, priority 1980, dated 1984):

Assay: electrical properties (dielectric constant, dielectric loss, volume resistivity)
Format: physicochemical
[1] = Table 5, Example 6, temperature not given

n-octyl-( 3,3,3-trifluoropropyl)benzene [n-octyl(3,3,3-trifluoropropyl)benzene]
Dielectric constant [1]: 4.18
Dielectric loss (tanδ) [1]: 0.095%
Volume resistivity [1]: 1.08 × 10^14 Ω·cm
Dielectric constant (Table 6, Example 7, at 20° C.): 3.89
Dielectric loss (tanδ) (Table 6, Example 7, at 20° C.): 0.015%
Volume resistivity (Table 6, Example 7, at 20° C.): 8.79 × 10^14 Ω·cm
